According to patent publication US12215234B2, “Process for the purification of methylene blue” (RK Pharma Solutions LLC, priority 2019, dated 2025):
“And” between values parts separate entries of the source, which are not always exact repeats. Equal values may be shown once.

Assays:
Format in all cases: physicochemical
[1] = pH of formulation containing methylene blue made by the prior-art process; details: methylene blue by process of Fundamental Processes of Dye Chemistry, isolated in the range of 3.0-4.5; pH increases
From the text: Desired pH for the methylene blue formulation as per USP is in between 3.0-4.5.
Another area of concern is pH of formulated methylene blue. USP mentions that pH of methylene blue formulation should be in between about 3.0 to about 4.5. In formulation, pH of Methylene blue solution tends to increase drastically when the pH of the active pharmaceutical ingredient (API) is kept in between about 3.0 to about 4.5 as per prior art process. To overcome such a problem, the reaction mass pH is preferably kept less than about 2 and more preferably pH of less than about 1. Suitable acids for the adjustment of pH to below about 1 includes, but is not limited to, hydrochloric acid.

[2] = Stability study of methylene blue at about 40° C. (40/75), six months; details: stability at 40° C., Trial 1-3
Procedure: (§1) Methylene blue product obtained by this process is then loaded for stability at about 20-25° C. and at about 40° C. Purity and metal content of Methylene blue is tested for up to six months.

[3] = Stability study of methylene blue at about 20-25° C. (25/60), six months; parameters: Highest Unknown / Total impurities / Azure B / Azure C: unit not given here; details: stability at 25° C., Trial 1-3
Procedure: as §1

CN(C)c1ccc2nc3ccc(N(C)C)cc3[s+]c2c1 [Methylene blue, 3,7-bis(dimethylamino)phenothiazin-5-ylium chloride]
pH of the formulation containing methylene blue [1]: above 4.5 | Azure B ([2]; impurity, 6M 40/75): 2.41 and 2.26 | Azure C ([2]; impurity, 6M 40/75): 0.01 | Metal Content Mn ([2]; 6M 40/75): 0.49 ppm and 0.51 ppm | Total impurities ([2]; 6M 40/75): 2.5 and 2.46 and 2.52 | Total metal content ([2]; 6M 40/75, sum of Al, Cr, Cu, Mn, Zn): 74.97 ppm and 62.91 ppm and 62.48 ppm | Purity ([2]; profile 6M 40/75): 97.5 and 97.54 and 97.48 | Azure B ([3]; impurity, 6M 25/60): 2.37 and 2.2 and 2.17 | Azure C ([3]; impurity, 6M 25/60): 0.01 | Highest Unknown ([3]; impurity, 6M 25/60): 0.04 and 0.06 and 0.08 | Metal Content Mn ([3]; 6M 25/60): 0.68 ppm and 0.61 ppm and 0.48 ppm | Total impurities ([3]; 6M 25/60): 2.46 and 2.4 and 2.44 | Total metal content ([3]; 6M 25/60, sum of Al, Cr, Cu, Mn, Zn): 76.51 ppm and 75.6 ppm and 57.41 ppm | Purity ([3]; profile 6M 25/60): 97.54 and 97.6 and 97.56
